Assay results reported in US11814367B2, “Inhibitors of glycogen synthase 1 (GYS1) and methods of use thereof” (Maze Therapeutics, Inc., priority 2021, dated 2023).

How the values were obtained:
[1] = biological target: hGYS1 enzyme (recombinant hGYS1/GN1 protein) (Homo sapiens (Human), UniProt P13807); experiment: GYS1 coupled enzyme assay (PK/LDH); type: biochemical; settings: hGYS1/GN1 50 nM, UDP-Glucose 0.8 mM, G6P 1 mM; geometric mean of at least 2 runs
[2] = biological target: hGYS2 enzyme (recombinant hGYS2/GN1 protein) (Homo sapiens (Human), UniProt P54840); experiment: GYS2 coupled enzyme assay (PK/LDH); type: biochemical; settings: geometric mean of at least 2 assay runs on separate days, read-out: Avg_IC50
hGYS2 enzyme (recombinant hGYS2/GN1 protein), sequence (P54840 whole entry): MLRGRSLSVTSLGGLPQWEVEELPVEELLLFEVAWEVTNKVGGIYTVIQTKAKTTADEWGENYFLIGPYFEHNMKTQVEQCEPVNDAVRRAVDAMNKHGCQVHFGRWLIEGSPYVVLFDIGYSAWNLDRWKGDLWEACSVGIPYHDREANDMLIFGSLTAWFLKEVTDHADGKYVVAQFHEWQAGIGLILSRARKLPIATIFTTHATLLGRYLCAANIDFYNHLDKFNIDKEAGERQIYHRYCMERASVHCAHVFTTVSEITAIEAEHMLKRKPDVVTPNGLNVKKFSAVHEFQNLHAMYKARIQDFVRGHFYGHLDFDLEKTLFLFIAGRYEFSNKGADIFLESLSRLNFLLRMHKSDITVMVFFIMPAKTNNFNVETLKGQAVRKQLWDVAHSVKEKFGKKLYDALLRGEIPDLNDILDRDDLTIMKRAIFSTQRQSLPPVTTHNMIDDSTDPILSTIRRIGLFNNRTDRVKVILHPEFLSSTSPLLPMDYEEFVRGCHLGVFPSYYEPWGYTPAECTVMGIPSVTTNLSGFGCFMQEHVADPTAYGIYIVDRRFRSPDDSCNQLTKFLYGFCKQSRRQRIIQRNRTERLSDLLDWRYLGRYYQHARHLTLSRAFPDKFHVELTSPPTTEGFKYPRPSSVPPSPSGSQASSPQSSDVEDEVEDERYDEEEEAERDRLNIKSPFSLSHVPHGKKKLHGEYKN
hGYS2 enzyme (recombinant hGYS2/GN1 protein), sequence (P46976 whole entry partner): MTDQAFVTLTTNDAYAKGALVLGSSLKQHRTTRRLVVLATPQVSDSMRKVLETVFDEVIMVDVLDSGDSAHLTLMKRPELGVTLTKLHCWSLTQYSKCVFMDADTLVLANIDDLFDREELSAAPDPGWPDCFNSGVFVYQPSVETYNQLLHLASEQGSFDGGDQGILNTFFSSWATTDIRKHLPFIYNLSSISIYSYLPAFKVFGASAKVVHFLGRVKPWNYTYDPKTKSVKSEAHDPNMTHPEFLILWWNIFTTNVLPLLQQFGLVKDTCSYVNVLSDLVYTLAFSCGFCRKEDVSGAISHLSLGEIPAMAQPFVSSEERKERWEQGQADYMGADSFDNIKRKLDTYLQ
Summary of the method: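 hGYS2/GN1 200 nM; UDP-Glc 2 mM; glycogen 0.2%; G6P 2 mM; PEP 2 mM, NADH 0.6 mM, PK/LDH 20 U/mL. 50 mM Tris pH 7.5, MgCl2, KCl, BSA, TCEP, 2.5% DMSO. Kinetic A340, 10 min. IC50 = geomean of ≥2 runs.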

hGYS1 enzyme (recombinant hGYS1/GN1 protein), sequence (P13807 whole entry): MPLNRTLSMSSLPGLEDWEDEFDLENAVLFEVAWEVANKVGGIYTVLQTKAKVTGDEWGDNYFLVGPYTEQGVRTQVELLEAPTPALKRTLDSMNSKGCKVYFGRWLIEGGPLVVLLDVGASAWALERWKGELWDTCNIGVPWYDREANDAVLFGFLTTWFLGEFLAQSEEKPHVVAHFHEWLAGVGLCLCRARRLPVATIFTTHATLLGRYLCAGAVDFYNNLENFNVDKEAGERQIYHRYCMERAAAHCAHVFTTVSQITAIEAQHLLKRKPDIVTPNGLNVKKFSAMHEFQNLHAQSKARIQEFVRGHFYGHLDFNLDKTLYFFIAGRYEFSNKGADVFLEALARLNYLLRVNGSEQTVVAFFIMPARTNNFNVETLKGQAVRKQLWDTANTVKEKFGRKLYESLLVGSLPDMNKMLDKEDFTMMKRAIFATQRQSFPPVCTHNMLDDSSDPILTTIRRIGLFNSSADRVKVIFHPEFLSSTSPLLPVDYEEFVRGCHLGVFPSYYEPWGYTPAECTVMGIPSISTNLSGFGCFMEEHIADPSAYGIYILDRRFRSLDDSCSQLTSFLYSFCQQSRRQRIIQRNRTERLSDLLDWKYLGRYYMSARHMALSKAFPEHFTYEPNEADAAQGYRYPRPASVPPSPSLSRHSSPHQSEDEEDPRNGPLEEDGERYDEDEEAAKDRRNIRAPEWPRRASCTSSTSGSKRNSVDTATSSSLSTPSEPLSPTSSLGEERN
hGYS1 enzyme (recombinant hGYS1/GN1 protein), sequence (P46976 whole entry partner): as the sequence (P46976 whole entry partner) above

CC(C)c1ccc([C@@H](NC(=O)[C@@H]2C[C@@H](F)CN2C(=O)CNC(=O)N2CC(C(F)(F)F)C2)c2ccccc2)nc1 [Compound 291, (2S,4R)-4-fluoro-N-[(S)-phenyl[5-(propan-2-yl)pyridin-2-yl]methyl]-1-(2-{[3-(trifluoromethyl)azetidin-1-carbonyl]amino}acetyl) pyrrolidine-2-carboxamide]
IC50 [1]: 53 nM
IC50 [2]: > 100000 nM

CC(C)c1ccc([C@@H](NC(=O)[C@@H]2C[C@@H](F)CN2C(=O)Cn2cccn2)c2ccccc2)nc1 [Compound 292, (2S,4R)-4-fluoro-N-[(S)-phenyl[5-(propan-2-yl)pyridin-2-yl]methyl]-1-[2-(1H-pyrazol-1-yl)acetyl]pyrrolidine-2-carboxamide]
IC50 [1]: 111 nM
IC50 [2]: > 100000 nM

CC(C)c1ccc([C@@H](NC(=O)[C@@H]2C[C@@H]3C[C@@H]3N2C(=O)Cc2cnn[nH]2)c2ccccc2)cc1F [Compound 324, (1S,3S,5S)-N-[(S)-[3-fluoro-4-(propan-2-yl)phenyl](phenyl)methyl]-2-[2-(1H-1,2,3-triazol-5-yl)acetyl]-2-azabicyclo[3.1.0]hexane-3-carboxamide]
IC50 [1]: 142 nM
IC50 [2]: > 100000 nM

CC(C)c1ccc([C@@H](NC(=O)[C@@H]2[C@H]3C[C@H]3CN2C(=O)Cc2cnn[nH]2)c2ccccc2)cc1F [Compound 325, (1S,2S,5R)-N-[(S)-[3-fluoro-4-(propan-2-yl)phenyl](phenyl)methyl]-3-[2-(1H-1,2,3-triazol-5-yl)acetyl]-3-azabicyclo[3.1.0]hexane-2-carboxamide]
IC50 [1]: 75 nM
IC50 [2]: > 100000 nM

CC(C)c1ccc([C@@H](NC(=O)[C@@H]2C[C@@H](F)CN2C(=O)Cc2nnn[nH]2)c2ccccc2)cc1F [Compound 328, (2S,4R)-4-fluoro-N-[(S)-[3-fluoro-4-(propan-2-yl)phenyl](phenyl)methyl]-1-[2-(1H-1,2,3,4-tetrazol-5-yl)acetyl]pyrrolidine-2-carboxamide]
IC50 [1]: 16 nM
IC50 [2]: > 100000 nM

CC(C)c1ccc([C@@H](NC(=O)[C@@H]2C[C@@H](F)CN2C(=O)Cn2ccnn2)c2ccccc2)cc1F [Compound 331, (2S,4R)-4-fluoro-N-[(S)-[3-fluoro-4-(propan-2-yl)phenyl](phenyl)methyl]-1-[2-(1H-1,2,3-triazol-1-yl)acetyl]pyrrolidine-2-carboxamide]
IC50 [1]: 23 nM
IC50 [2]: > 100000 nM

CC(C)c1ccc([C@@H](NC(=O)[C@@H]2C[C@@H](F)CN2C(=O)C2(c3nnco3)CC2)c2ccccc2)cc1F [Compound 333, (2S,4R)-4-fluoro-N-[(S)-[3-fluoro-4-(propan-2-yl)phenyl](phenyl)methyl]-1-[1-(1,3,4-oxadiazol-2-yl)cyclopropanecarbonyl] pyrrolidine-2-carboxamide]
IC50 [1]: 165 nM
IC50 [2]: > 100000 nM

CC(C)c1ccc([C@@H](NC(=O)[C@@H]2C[C@@H](F)CN2C(=O)C(C)(C)c2nnco2)c2ccccc2)cc1F [Compound 334]
IC50 [1]: 145 nM
IC50 [2]: > 100000 nM

CC(C)c1ccc([C@@H](NC(=O)[C@@H]2C[C@@H](F)CN2C(=O)Cc2ccnn2C)c2ccccc2)cc1F [Compound 337, (2S,4R)-4-fluoro-N-[(S)-[3-fluoro-4-(propan-2-yl)phenyl](phenyl)methyl]-1-[2-(1-methyl-1H-pyrazol-5-yl)acetyl]pyrrolidine-2-carboxamide]
IC50 [1]: 27 nM
IC50 [2]: > 100000 nM

CC(C)c1ccc([C@@H](NC(=O)[C@@H]2C[C@@H](F)CN2C(=O)Cc2cnccn2)c2ccccc2)cc1F [Compound 344]
IC50 [1]: 13 nM
IC50 [2]: > 100000 nM

CC(C)c1ccc([C@@H](NC(=O)[C@@H]2C[C@@H](F)CN2C(=O)Cc2cncnc2)c2ccccc2)cc1F [Compound 345, (2S,4R)-4-fluoro-N-[(S)-[3-fluoro-4-(propan-2-yl)phenyl](phenyl)methyl]-1-[2-(pyrimidin-5-yl)acetyl]pyrrolidine-2-carboxamide]
IC50 [1]: 32 nM
IC50 [2]: > 100000 nM

CC(C)c1ccc([C@@H](NC(=O)[C@@H]2C[C@@H](F)CN2C(=O)Cc2ccncn2)c2ccccc2)cc1F [Compound 346, (2S,4R)-4-fluoro-N-[(S)-[3-fluoro-4-(propan-2-yl)phenyl](phenyl)methyl]-1-[2-(pyrimidin-4-yl)acetyl]pyrrolidine-2-carboxamide]
IC50 [1]: 24 nM
IC50 [2]: > 100000 nM

CC(C)c1ccc([C@@H](NC(=O)[C@@H]2C[C@@H](F)CN2C(=O)Cc2ccn(C)n2)c2ccccc2)cc1F [Compound 350, (2S,4R)-4-fluoro-N-[(S)-[3-fluoro-4-(propan-2-yl)phenyl](phenyl)methyl]-[2-(1-methyl-1H-pyrazol-3-yl)acetyl]pyrrolidine-2-carboxamide]
IC50 [1]: 20 nM
IC50 [2]: > 100000 nM

CC(C)c1ccc([C@@H](NC(=O)[C@@H]2C[C@@H](F)CN2C(=O)CNC(=O)N2CCN(C(=O)OC(C)(C)C)CC2)c2ccccc2)cc1F [Compound 366, tert-butyl 4-({2-[(2S,4R)-4-fluoro-2-{[(S)-[3-fluoro-4-(propan-2-yl)phenyl](phenyl)methyl]carbamoyl}pyrrolidin-1-yl]-2-oxoethyl}carbamoyl) piperazine-1-carboxylate]
IC50 [1]: 20 nM
IC50 [2]: > 100000 nM

CC(C)c1ccc([C@@H](NC(=O)[C@@H]2C[C@@H](F)CN2C(=O)Cn2ncc(N3CCNCC3)n2)c2ccccc2)cc1F [Compound 376, (2S,4R)-4-fluoro-N-[(S)-[3-fluoro-4-(propan-2-yl)phenyl](phenyl)methyl]-1-{2-[4-(piperazin-1-yl)-2H-1,2,3-triazol-2-yl]acetyl}pyrrolidine-2-carboxamide]
IC50 [1]: 8 nM
IC50 [2]: > 100000 nM

Cc1cn(CC(=O)N2C[C@H](F)C[C@H]2C(=O)N[C@@H](c2ccccc2)c2ccc(C(C)C)c(F)n2)c(=O)n(C)c1=O [Compound 386, (2S,4R)-1-[2-(3,5-dimethyl-2,4-dioxo-1,2,3,4-tetrahydropyrimidin-1-yl)acetyl]-4-fluoro-N-[(S)-[6-fluoro-5-(propan-2-yl)pyridin-2-yl](phenyl)methyl] pyrrolidine-2-carboxamide]
IC50 [1]: 5 nM
IC50 [2]: > 100000 nM

Cc1cn(CC(=O)N2C[C@H](F)C[C@H]2C(=O)N[C@@H](c2ccccc2)c2ccc(C(C)C)c(F)n2)c(=O)[nH]c1=O [Compound 388, (2S,4R)-4-fluoro-N-[(S)-[6-fluoro-5-(propan-2-yl)pyridin-2-yl](phenyl)methyl]-1-[2-(5-methyl-2,4-dioxo-1,2,3,4-tetrahydropyrimidin-1-yl)acetyl]pyrrolidine-2-carboxamide]
IC50 [1]: 5 nM
IC50 [2]: > 100000 nM

CC(=O)N1C[C@H](F)C[C@H]1C(=O)N[C@@H](c1ccccc1)c1ccc(C2CC2)c(F)c1 [Compound 418, (2S,4R)-1-acetyl-N-[(S)-(4-cyclopropyl-3-fluorophenyl)(phenyl)methyl]-4-fluoropyrrolidine-2-carboxamide]
IC50 [1]: 697 nM
IC50 [2]: > 100000 nM

CC(=O)NCC(=O)N1CCC[C@H]1C(=O)N[C@@H](c1ccccc1)c1ccc(C2CC2)c(F)c1 [Compound 421, (2S)-N-[(S)-(4-cyclopropyl-3-fluorophenyl)(phenyl)methyl]-1-(2-acetamidoacetyl) pyrrolidine-2-carboxamide]
IC50 [1]: 294 nM
IC50 [2]: > 100000 nM

O=C(N[C@@H](c1ccccc1)c1ccc(C2CC2)c(F)c1)[C@@H]1C[C@@H](F)CN1C(=O)CCc1ncco1 [Compound 422, (2S,4R)-N-[(S)-(4-cyclopropyl-3-fluorophenyl)(phenyl)methyl]-4-fluoro-1-[3-(1,3-oxazol-2-yl)propanoyl]pyrrolidine-2-carboxamide]
IC50 [1]: 166 nM
IC50 [2]: > 100000 nM

O=C(N[C@@H](c1ccccc1)c1ccc(C2CC2)c(F)c1)[C@@H]1C[C@@H](F)CN1C(=O)CN1CCOC1=O [Compound 424, (2S,4R)-N-[(S)-(4-cyclopropyl-3-fluorophenyl)(phenyl)methyl]-4-fluoro-1-[2-(2-oxo-1,3-oxazolidin-3-yl)acetyl] pyrrolidine-2-carboxamide]
IC50 [1]: 287 nM
IC50 [2]: > 100000 nM

O=C(N[C@@H](c1ccccc1)c1ccc(C2CC2)c(F)c1)[C@@H]1C[C@@H](F)CN1C(=O)Cc1nnco1 [Compound 426, (2S,4R)-N-[(S)-(4-cyclopropyl-3-fluorophenyl)(phenyl)methyl]-4-fluoro-1-[2-(1,3,4-oxadiazol-2-yl)acetyl]pyrrolidine-2-carboxamide]
IC50 [1]: 363 nM
IC50 [2]: > 100000 nM

O=C(N[C@@H](c1ccccc1)c1ccc(C2CC2)c(F)c1)[C@@H]1C[C@@H](F)CN1C(=O)Cc1nnc(C(F)(F)F)o1 [Compound 428, (2S,4R)-N-[(S)-(4-cyclopropyl-3-fluorophenyl)(phenyl)methyl]-4-fluoro-1-{2-[5-(trifluoromethyl)-1,3,4-oxadiazol-2-yl]acetyl}pyrrolidine-2-carboxamide]
IC50 [1]: 374 nM
IC50 [2]: > 100000 nM

O=C(N[C@@H](c1ccccc1)c1ccc(C2CC2)c(F)c1)[C@@H]1C[C@@H](F)CN1C(=O)Cc1nnn[nH]1 [Compound 430, (2S,4R)-N-[(S)-(4-cyclopropyl-3-fluorophenyl)(phenyl)methyl]-4-fluoro-1-[2-(1H-1,2,3,4-tetrazol-5-yl)acetyl]pyrrolidine-2-carboxamide]
IC50 [1]: 191 nM
IC50 [2]: > 100000 nM

Cc1nnnn1CC(=O)N1C[C@H](F)C[C@H]1C(=O)N[C@@H](c1ccccc1)c1ccc(C2CC2)c(F)c1 [Compound 432, (2S,4R)-N-[(S)-(4-cyclopropyl-3-fluorophenyl)(phenyl)methyl]-4-fluoro-1-[2-(5-methyl-1H-1,2,3,4-tetrazol-1-yl)acetyl]pyrrolidine-2-carboxamide]
IC50 [1]: 185 nM
IC50 [2]: > 100000 nM
